# Read-outs that look alike come from different tables or passages of the source. Where a SMILES comes first, the peptide text is derived from it. Bridges are numbered along the chain shown (N, C = ends). [ ]: non-standard residue; d: D form. hArg = N=C(N)NCCCC[C@H](N)C(=O)O; Mpa = O=C(O)CCS
# How the values were obtained:
# [1] = system: myocardial necrosis markers (troponin I, CKMB, myoglobin); experiment: Myocardial necrosis markers and infarction after elective stenting (Example 2); assay type: in vivo, patients; conditions: for criteria met for a myocardial infarction: CK-MB>3× ULN in at least 2 samples; for large infarcts: CK-MB>5×ULN in at least 2 samples
# Experimental: Patients were randomly assigned to one of four treatment regimens by a computer generated assignment that was chosen from a sealed envelope by the study personnel: […] […] Unfractionated heparin was administered according to the ESPRIT dosing regimen (60 U/kg) as a bolus to all patients in the catheterization laboratory immediately prior to stenting. Cardiac markers were measured at the same times as the platelet assays. The peak levels of troponin I, creatinine kinase MB (CKMB), and myoglobin were determined using the Triage® Cardiac Panel with a Triage® Meter (Biosite Inc., San Diego, Calif.). This method is based on a fluorescence immunoassay for the quantitative determination of these cardiac markers.
# p-selectin = conditions: stimulated; 18-24 hours post-stenting; 300 mg clopidogrel alone
# Experimental: The surface expression of platelet receptors was determined by whole blood flow cytometry using three-color analysis method (Immunocytometry Systems, Cytometry Source Book, Becton Dickinson) with the following monoclonal antibodies: FITCconjugated PAC-1. (recognizes activated GP IIb/IIIa receptors), R-Phycoerythrin (R-PE)-conjugated CD41a (recognizes total GP IIb/IIIa receptors), and CY-Chrome™ conjugated CD62P (recognizes p-selectin). All three antibodies were purchased from BD Biosciences, San Diego, Calif. The blood-citrate mixture was stimulated with 5 μM ADP for 2 minutes. Saturating concentrations of respective antibodies were then added and the tubes were incubated at room temperature for 20 minutes in the dark. […] The labeled samples were analyzed by a Becton Dickinson FACScan flow cytometer set up to measure fluorescence light scatter. The instrument was calibrated with fluorescence beads for the three-color flow cytometer setup (CaliBRITE™3, BD Biosciences). […] The data were collected in list mode and then analyzed using CELL Quest Software (BD BioSciences). P-selectin was expressed as percent positive cells (i.e. the ratio of CD62P (CY-Chrome™) verses CD41a (R-PE) positive cells) as previously described. Activated GP IIb/IIIa was expressed as log mean fluorescence intensity.
# [2] = system: platelets (ADP-induced aggregation); conditions: cited from earlier work
# [3] = system: activated GP IIb/IIIa receptors; experiment: Whole blood flow cytometry, stimulated active GP IIb/IIIa expression (Example 2); assay type: in vivo, patients; conditions: 18-24 hours post-stenting, 5 μM ADP stimulated
# Experimental: (recognizes activated GP IIb/IIIa receptors), R-Phycoerythrin (R-PE)-conjugated CD41a (recognizes total GP IIb/IIIa receptors), and CY-Chrome™ conjugated CD62P (recognizes p-selectin). […] The blood-citrate mixture was stimulated with 5 μM ADP for 2 minutes.
# The definition of an infarct was CK-MB>3× upper limits normal (ULN) in at least 2 samples and a large infarct was defined as CK-MB>5×ULN in at least 2 samples.10,13 Bleeding was quantified according to the TIMI criteria.16 In brief, major bleeding was defined as clinically overt bleeding accompanied by a fall in hemoglobin of […] or a fall in hematocrit of 9 to <15%.
# [4] = system: platelets (ADP-induced aggregation); conditions: resistance = >75th percentile of group without SAT, 75 mg maintenance dose
# Source text: Cases of stent thrombosis (n=30) were identified by searching the medical records of patients who underwent coronary stenting in the last 1.5 years at the Sinai Hospital of Baltimore and Union Memorial Hospital, Baltimore, Md. […] Stent thrombosis was defined by the sudden onset of coronary artery occlusion in a stented vessel resulting in hospitalization and judged by the treating interventionalist as due to thrombosis. Platelet reactivity in patients with stent thrombosis (SAT) was compared to a group of patients without SAT. In patients without SAT, platelet studies were performed 5-14 days post-procedure and these patients were enrolled consecutively (n=100). […]
# Platelet aggregation was determined by conventional light transmittance aggregometry in response to 5 and 20 μM ADP (adenosine diphosphate); and 1.0 mM arachidonic acid using standard methods as previously described. […] The platelet count was determined in the PRPR sample and adjusted to 2-3×10^8/ml with homologous PPP. Platelets in PRP were stimulated with a final concentration of 5 and 20 μM ADP (Chronolog, Haverton, Pa.), and percent aggregation was assessed as previously described using a Chronolog Lumi aggregometer (Model 490A) with the Aggro-Link software package (Gurbel et al. J Am Coll Cardiol 1998 89:783). […]
# [5] = system: platelets (ADP-induced aggregation); experiment: ADP-induced platelet aggregation by light transmittance aggregometry after coronary stenting (Example 2); assay type: in vivo, patients
# Experimental: Patients were randomly assigned to one of four treatment regimens by a computer generated assignment that was chosen from a sealed envelope by the study personnel: […] […] Unfractionated heparin was administered according to the ESPRIT dosing regimen (60 U/kg) as a bolus to all patients in the catheterization laboratory immediately prior to stenting. […] The blood-citrate tubes were centrifuged at 120 g for 5 minutes to recover platelet rich plasma (PRP) and further centrifuged at 850 g for 10 minutes to recover platelet poor plasma (PPP). The platelet count was determined in the PRP sample and adjusted to 3.0×10^8/ml with homologous platelet poor plasma. The PRP and PPP were stored at room temperature to be used within two hours. Platelet aggregation was assessed as described previously. […] Aggregation was expressed as the maximum percent change in light transmittance from baseline, using PPP as a reference.
# [6] = Group A, 300 mg clopidogrel; hematoma
# Experimental: Relative platelet inhibition was defined for purposes of this study as follows: (baseline aggregation minus posttreatment aggregation)/baseline aggregation×100%.14 Mean platelet reactivity was calculated as the average platelet aggregation recorded at 3, 8 and 18-24 hours poststenting. […] The definition of an infarct was CK-MB>3× upper limits normal (ULN) in at least 2 samples and a large infarct was defined as CK-MB>5×ULN in at least 2 samples.10,13 Bleeding was quantified according to the TIMI criteria.16 In brief, major bleeding was defined as clinically overt bleeding accompanied by a fall in hemoglobin of 3.0-5.0 g/dl or a fall in hematocrit of 9 to <15%. Major bleeding occurred when the hemoglobin decreased >5 g/dl or the hematocrit ≧15%.
# [7] = system: platelets (arachidonic acid-induced aggregation); experiment: Aspirin resistance by arachidonic acid-induced aggregation, LTA (Example 1); assay type: in vivo; conditions: 1.0 mM arachidonic acid; 1/70 patients; aspirin 81-325 mg qd
# Source text: J Am Coll Cardiol 1998 89:783).
# [8] = system: platelets (arachidonic acid-induced aggregation); conditions: Gum et al. study; ADP and 1.6 mM arachidonic acid; cited from earlier work
compound,measurement,setting,value
COC(=O)[C@H](c1ccccc1Cl)N1CCc2sccc2C1 [clopidogrel],ST-elevation myocardial infarction in-hospital following a subacute thrombosis,"[1]; Group A, 300 mg clopidogrel",one
same,criteria met for a myocardial infarction,"[1]; Group A, 300 mg clopidogrel",3 patients
same,large infarcts,"[1]; Group A, 300 mg clopidogrel",2
same,criteria met for a myocardial infarction,"[1]; Group B, 600 mg clopidogrel",1 patients
same,large infarcts,"[1]; Group B, 600 mg clopidogrel",1
same,effect in p-selectin expression,p-selectin,least effect
same,inhibition of baseline aggregation,"[2]; 300 mg loading dose, 5 and 20 μM ADP, 24 hours after administration",< 40%
same,inhibition of stimulated expression of active GP IIb/IIIa,"[3]; 300 mg clopidogrel loading dose (Groups A, C)",50±20%
same,inhibition of stimulated expression of active GP IIb/IIIa,"[3]; 600 mg clopidogrel loading dose (Groups B, D)",63±7%
same,estimated incidence of clopidogrel resistance,[4]; 5 μM ADP-induced aggregation,65%
same,estimated incidence of clopidogrel resistance,[4]; 20 μM ADP-induced aggregation,60%
same,time of peak inhibitory effect,"[5]; 5 μM ADP, 300 mg clopidogrel loading dose",18 to 24 h
same,time of peak inhibitory effect,"[5]; 5 μM ADP, 600 mg clopidogrel loading dose",8 h
same,"platelet inhibition, 600 mg vs 300 mg loading dose","[5]; 5 μM ADP, 600 mg loading dose, no eptifibatide, first 24 hours after stenting",greater platelet inhibition
same,mean platelet reactivity vs 600 mg clopidogrel alone,"[5]; 5 μM ADP, average of 3, 8 and 18-24 hours post-stenting, 300 mg clopidogrel alone",higher mean platelet reactivity
same,time of peak inhibitory effect,"[5]; 20 μM ADP, 300 mg clopidogrel loading dose",8 h
same,time of peak inhibitory effect,"[5]; 20 μM ADP, 600 mg clopidogrel loading dose",8 h
same,minor bleeding,[6],one
N=C(N)NCCCC[C@@H]1NC(=O)CCSSC[C@@H](C(N)=O)NC(=O)[C@@H]2CCCN2C(=O)[C@H](Cc2c[nH]c3ccccc23)NC(=O)[C@H](CC(=O)O)NC(=O)CNC1=O [eptifibatide] ([Mpa][hArg]GDWPC-NH2; disulfide 1-7),large infarcts,"[1]; either group that received eptifibatide (Groups C, D)",no large infarcts
same,"CKMB release (>1-3×ULN), overall",[1]; groups treated with eptifibatide vs clopidogrel alone,lowest
same,inhibition (of aggregation),[2]; other studies,> 80%
same,mean platelet reactivity,"[5]; 5 μM ADP, average of 3, 8 and 18-24 hours post-stenting, eptifibatide use",lowest mean platelet reactivity
CC(=O)Oc1ccccc1C(=O)O [aspirin],patients meeting the criteria for aspirin resistance,[7],1.5%
same,patients meeting the criteria for aspirin resistance,[8],5.5%
